Experimental data from patent US20250197864A1, “LNCRNA TRANSCRIPTS IN MELANOMAGENESIS” (The Regents of the University of California, priority 2021, published 2025).

Legend:
D04 cells [1] = test: Repetition of drug treatment in surviving D04 cells (drug resistance test); type: cell-based, human; settings: TRASH-ASO 50 nM or MEKi 15 nM (or 20 nM), recovery in drug free media, five days (120 hrs)
Experimental: Dependent on cell doubling time, 0.7-2×10^^3 cells were seeded in 96 well plates. 1 day after seeding cells were incubated in media with oligonucleotide concentration and/or MEKi and transfection reagent. 3 (synergy experiments) or 5 (solely ASO) days after transfection Total luminescence was measured on the SynergyHT plate reader (BioTek) using Gen5 software.
Rescuing cells that survived initial TRASH-ASO (SEQ ID NO:15) and MEKi (trametinib) treatment and providing the rescued cells with a phase of regrowth in drug free media, was followed by repetition of the preceding drug treatment. […] Incubation time was 120 hrs, n=3. (FIG. 5d).

D04 cells [2] = test: Flow cytometry apoptosis (Annexin V and propidium iodide); type: cell-based, human; settings: 50 nM, 24 h, vs Control-ASO
Experimental: To confirm activation of apoptosis and cell death in response to TRASH-ASO treatment (SEQ ID NO: 15) D04 cells were either treated with control-ASO or TRASH-ASO (50 nM) for 24 h. The cells were stained with Alexa 488 Annexin V and propidium iodide (PI) (Invitrogen™ Dead Cell Apoptosis Kits with Annexin V for Flow Cytometry Catalog number: V13241). […] (FIG. 5e)

In the case of “GACTGGAGATAATTAA (gapmer, pattern not given here) [SEQ ID NO: 15, GapmeR ASO targeting AC004540.4 (TRASH), exon region of both isoforms; used for in vitro experiments]”, the “cell-growth reduction on repetition of the preceding drug treatment in surviving cells” value (D04 cells [1]; n=3, listed as SEQ ID NO:15) is reported as “increased vulnerability”, the “cell-growth reduction on repetition of the preceding drug treatment in surviving cells” value (D04 cells [1]; n=3, listed as TRASH-ASO) is reported as “significantly increased (p=0.004) cell-growth reduction” and the “fractions of apoptotic and dead cells (Annexin V / PI)” value (D04 cells [2]) is reported as “Increased fractions of apoptotic and dead cells”.
